Data on three compounds can be found in publication PMC6399515 (Insect Biochemistry and Molecular Biology, 2016).

In one data set the target is T1, CYP6P2 (Anopheles gambiae, UniProt Q8T629, V81I).
T1 sequence (Q8T629 1-507 V81I): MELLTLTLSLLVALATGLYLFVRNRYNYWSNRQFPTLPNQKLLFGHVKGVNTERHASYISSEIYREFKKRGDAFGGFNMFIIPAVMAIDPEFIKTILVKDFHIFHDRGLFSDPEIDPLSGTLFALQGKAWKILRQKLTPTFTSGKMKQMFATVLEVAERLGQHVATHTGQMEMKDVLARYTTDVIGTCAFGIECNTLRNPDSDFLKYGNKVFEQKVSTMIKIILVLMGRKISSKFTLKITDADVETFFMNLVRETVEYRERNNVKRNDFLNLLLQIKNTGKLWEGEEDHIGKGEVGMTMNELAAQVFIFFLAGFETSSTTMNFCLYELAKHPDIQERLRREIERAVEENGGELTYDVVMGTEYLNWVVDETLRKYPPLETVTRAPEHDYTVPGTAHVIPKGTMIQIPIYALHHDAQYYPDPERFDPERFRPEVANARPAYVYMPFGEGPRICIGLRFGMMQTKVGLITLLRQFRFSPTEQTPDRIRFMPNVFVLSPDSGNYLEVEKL
T1 sequence (Q7QFI3 1-587 partner): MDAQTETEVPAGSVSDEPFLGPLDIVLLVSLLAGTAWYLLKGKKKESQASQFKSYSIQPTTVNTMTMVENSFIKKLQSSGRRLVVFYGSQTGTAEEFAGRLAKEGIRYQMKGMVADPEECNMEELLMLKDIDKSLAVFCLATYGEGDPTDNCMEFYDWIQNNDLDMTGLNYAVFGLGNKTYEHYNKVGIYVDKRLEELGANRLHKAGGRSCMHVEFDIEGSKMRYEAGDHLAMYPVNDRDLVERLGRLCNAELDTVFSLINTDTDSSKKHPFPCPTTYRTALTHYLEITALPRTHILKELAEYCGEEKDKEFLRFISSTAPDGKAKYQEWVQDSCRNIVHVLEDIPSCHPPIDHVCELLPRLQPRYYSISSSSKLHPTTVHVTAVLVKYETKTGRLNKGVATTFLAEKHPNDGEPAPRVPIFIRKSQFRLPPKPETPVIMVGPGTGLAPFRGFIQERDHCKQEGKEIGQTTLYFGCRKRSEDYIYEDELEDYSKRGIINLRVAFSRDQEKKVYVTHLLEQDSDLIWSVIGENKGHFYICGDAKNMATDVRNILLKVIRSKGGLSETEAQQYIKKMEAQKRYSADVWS
T1 sequence (Q86QH4 1-128 partner): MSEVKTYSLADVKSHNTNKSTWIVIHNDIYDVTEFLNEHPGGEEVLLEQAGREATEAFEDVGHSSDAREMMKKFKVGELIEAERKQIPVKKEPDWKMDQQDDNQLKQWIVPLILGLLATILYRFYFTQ
Briefly: biochemical.

Data set [1] concerns the target T2, CYP9J5 (Anopheles gambiae, UniProt Q5TN57).
T2 sequence (Q5TN57 1-545): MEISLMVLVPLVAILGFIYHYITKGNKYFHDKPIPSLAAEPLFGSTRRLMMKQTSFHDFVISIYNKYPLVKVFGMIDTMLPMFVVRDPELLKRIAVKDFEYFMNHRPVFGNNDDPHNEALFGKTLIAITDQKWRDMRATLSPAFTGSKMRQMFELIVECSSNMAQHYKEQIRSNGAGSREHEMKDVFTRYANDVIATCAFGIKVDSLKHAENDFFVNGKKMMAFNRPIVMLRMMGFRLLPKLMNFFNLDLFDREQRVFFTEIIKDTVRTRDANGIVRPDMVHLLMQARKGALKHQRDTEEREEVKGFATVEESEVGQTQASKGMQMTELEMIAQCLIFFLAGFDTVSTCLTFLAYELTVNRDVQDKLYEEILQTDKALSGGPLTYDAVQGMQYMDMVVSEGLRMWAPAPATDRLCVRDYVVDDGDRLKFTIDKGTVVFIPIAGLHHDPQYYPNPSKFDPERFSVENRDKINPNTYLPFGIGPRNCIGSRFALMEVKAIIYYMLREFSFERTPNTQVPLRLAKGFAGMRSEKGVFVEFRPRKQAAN
T2 sequence (Q86QH5 1-679 partner): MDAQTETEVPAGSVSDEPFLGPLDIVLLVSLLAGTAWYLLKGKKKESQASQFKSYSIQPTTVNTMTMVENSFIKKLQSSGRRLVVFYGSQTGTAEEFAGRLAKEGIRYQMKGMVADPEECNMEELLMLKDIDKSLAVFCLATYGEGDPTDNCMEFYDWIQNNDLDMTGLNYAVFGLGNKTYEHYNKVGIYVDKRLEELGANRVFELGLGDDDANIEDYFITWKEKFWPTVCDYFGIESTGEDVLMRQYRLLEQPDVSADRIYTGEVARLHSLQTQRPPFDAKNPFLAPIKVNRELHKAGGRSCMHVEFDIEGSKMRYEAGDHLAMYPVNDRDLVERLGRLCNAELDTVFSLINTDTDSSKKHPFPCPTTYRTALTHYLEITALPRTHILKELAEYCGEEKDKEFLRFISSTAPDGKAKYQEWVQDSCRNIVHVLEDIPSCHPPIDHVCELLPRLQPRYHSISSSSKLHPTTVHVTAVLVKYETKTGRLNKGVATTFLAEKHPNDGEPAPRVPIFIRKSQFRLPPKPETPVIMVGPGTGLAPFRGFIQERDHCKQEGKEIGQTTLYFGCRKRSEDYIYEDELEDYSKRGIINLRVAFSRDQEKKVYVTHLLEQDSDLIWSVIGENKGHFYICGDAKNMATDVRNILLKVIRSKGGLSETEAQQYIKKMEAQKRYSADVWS
T2 sequence (Q86QH4 1-128 partner): T1 sequence (Q86QH4 1-128 partner)
Briefly: biochemical.

Another data set concerns the target T3, CYP6P3 (Anopheles gambiae, UniProt Q8T632).
T3 sequence (Q8T632 1-509): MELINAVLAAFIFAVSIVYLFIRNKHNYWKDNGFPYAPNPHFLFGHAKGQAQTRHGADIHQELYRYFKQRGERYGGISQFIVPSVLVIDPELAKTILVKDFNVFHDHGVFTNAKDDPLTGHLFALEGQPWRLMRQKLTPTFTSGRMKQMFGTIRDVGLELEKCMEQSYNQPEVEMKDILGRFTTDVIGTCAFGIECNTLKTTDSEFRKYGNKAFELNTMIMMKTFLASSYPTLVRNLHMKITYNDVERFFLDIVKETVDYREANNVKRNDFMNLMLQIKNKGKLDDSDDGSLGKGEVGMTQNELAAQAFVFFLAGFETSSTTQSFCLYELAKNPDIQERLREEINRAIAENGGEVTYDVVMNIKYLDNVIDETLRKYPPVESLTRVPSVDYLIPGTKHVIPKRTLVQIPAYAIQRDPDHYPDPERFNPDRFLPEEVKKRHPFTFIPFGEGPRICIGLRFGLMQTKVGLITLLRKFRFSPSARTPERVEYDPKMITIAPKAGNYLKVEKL
T3 sequence (Q86QH5 1-679 partner): T2 sequence (Q86QH5 1-679 partner)
T3 sequence (Q86QH4 1-128 partner): T1 sequence (Q86QH4 1-128 partner)
The data set can be described thus: biochemical.

In data set [2] the target is T2, CYP9J5.

By IC50 is commonly meant the concentration needed to halve the response being measured. As to `CC1(C)C(C=C(Cl)Cl)C1C(=O)OCc1cccc(Oc2ccccc2)c1` (mixture of isomers) [Permethrin, 3-phenoxybenzyl (1R,S)-cis,trans-3-(2,2-dichlorovinyl)-2,2-dimethylcyclopropanecarboxylate], the results for the IC50 against CYP6P2 (IC50 of DEF metabolism), against CYP9J5 [1] and at CYP6P3 were 8.61 µM, 6.47 µM and 6.77 µM, respectively.
As for `CCCCOCCOCCOCc1cc2c(cc1CCC)OCO2` [PBO, piperonyl butoxide], the “Inhibition ratio (%): reduction of PPF depletion caused by PBO” value came out at 99.6% at CYP9J5 [2] and 95.4% in the data set on CYP6P5.
Regarding `CC(COc1ccc(Oc2ccccc2)cc1)Oc1ccccn1` (stereo not drawn) [PPF, pyriproxyfen], the “% PPF depletion + PBO” value is reported as 0.08 ± 0.15% at CYP9J5 [2] (Anopheles gambiae, pH 7.4) and 2.40 ± 2.01% in the data set with CYP6P5 (Anopheles gambiae, pH 7.4). Moreover, the IC50 against CYP6P2 (IC50 of DEF metabolism) was 9.95 µM; against CYP6P2 (category of inhibition of DEF metabolism), 1 to 10 µM; at CYP9J5 [1], 19 µM; against CYP6P3 it was 15.8 µM. Also, in the data set with CYP6P5 (Anopheles gambiae, pH 7.4), the “% PPF depletion −PBO” value is listed as 39.96 ± 1.04%.
